Data from ChEMBL document CHEMBL1157233, “5,6:8,9-diepoxy and other cytotoxic sterols from the marine sponge Homaxinella sp” (2006).
Values after ≈ are worked out from the molar mass of the structure shown.

Key:
Format in all cases: functional
Settings in all cases: read-out: ED50 (the source's name)
[1] = test system: SK-MEL-2; test: Cytotoxicity against human SK-MEL-2 cells
[2] = test system: XF498; test: Cytotoxicity against human XF498 cells
[3] = test system: HCT-15; test: Cytotoxicity against human HCT15 cells
[4] = test system: A549; test: Cytotoxicity against human A549 cells
[5] = test system: SK-OV-3; test: Cytotoxicity against human SKOV3 cells

CC(C)C/C=C/[C@@H](C)[C@H]1CC[C@H]2C3=C[C@@H](O)[C@@]4(O)C[C@@H](O)CC[C@]4(C)[C@@]3(O)CC[C@]12C showed an EC50 [1] greater than 5 µg/mL, an EC50 [2] greater than 5 µg/mL and an EC50 [3] greater than 5 µg/mL. The EC50 [4] was greater than 5 µg/mL and the EC50 [5] was greater than 5 µg/mL.

In the case of CC(C)C/C=C/[C@@H](C)[C@H]1CC[C@H]2C3=CC(=O)[C@@]4(O)C[C@@H](O)CC[C@]4(C)[C@@]3(O)CC[C@]12C [HOMAXISTEROL C1], the EC50 [1] is reported as 3.9 µg/mL (≈ 9.06 µM), the EC50 [2] is reported as 3.7 µg/mL (≈ 8.59 µM) and the EC50 [3] is reported as 3.7 µg/mL (≈ 8.59 µM). For the same compound, the EC50 [4] was 5 µg/mL (≈ 11.6 µM) and the EC50 [5] was 7 µg/mL (≈ 16.3 µM).

Work on CC(C)C/C=C/[C@@H](C)[C@H]1CC[C@H]2C3=C[C@H](O)[C@@]4(O)C[C@@H](O)CC[C@]4(C)[C@H]3CC[C@]12C [HOMAXISTEROL D1] yielded an EC50 [1] of 3.1 µg/mL (≈ 7.44 µM), an EC50 [2] of 3.1 µg/mL (≈ 7.44 µM) and an EC50 [3] of 3.1 µg/mL (≈ 7.44 µM). It also gave an EC50 [4] of 3.5 µg/mL (≈ 8.4 µM) and an EC50 [5] of 3.9 µg/mL (≈ 9.36 µM).

In the case of CC(C)[C@@H](C)/C=C/[C@@H](C)[C@H]1CC[C@H]2C3=C[C@@H](O)[C@@]4(O)C[C@@H](O)CC[C@]4(C)[C@H]3CC[C@]12C [CEREVISTEROL], the EC50 [1] is reported as 2.8 µg/mL (≈ 6.5 µM), the EC50 [2] is reported as 3.3 µg/mL (≈ 7.66 µM) and the EC50 [3] is reported as 3 µg/mL (≈ 6.97 µM). The EC50 [4] was 3.9 µg/mL (≈ 9.06 µM) and the EC50 [5] was 6 µg/mL (≈ 13.9 µM).

CO[C@@H]1C=C2[C@@H]3CC[C@H]([C@H](C)/C=C/CC(C)C)[C@@]3(C)CC[C@@H]2[C@@]2(C)CC[C@H](O)C[C@]12O showed an EC50 [1] of 3.4 µg/mL (≈ 7.89 µM), an EC50 [2] of 4 µg/mL (≈ 9.29 µM) and an EC50 [3] of 4.2 µg/mL (≈ 9.75 µM). For the same compound, the EC50 [4] was 4.8 µg/mL (≈ 11.1 µM) and the EC50 [5] was 7.1 µg/mL (≈ 16.5 µM).

With CC(C)C/C=C/[C@@H](C)[C@H]1CC[C@H]2C3=C[C@@H](O)[C@@]4(O)C[C@@H](O)CC[C@]4(C)[C@H]3CC[C@]12C the EC50 [1] was greater than 5 µg/mL, the EC50 [2] was greater than 5 µg/mL and the EC50 [3] was greater than 5 µg/mL. For the same compound, the EC50 [4] was greater than 5 µg/mL and the EC50 [5] was greater than 5 µg/mL.

CC[C@@H](/C=C/[C@@H](C)[C@H]1CC[C@H]2C3=C[C@@H](O)[C@@]4(O)C[C@@H](O)CC[C@]4(C)[C@H]3CC[C@]12C)C(C)C showed an EC50 [1] greater than 5 µg/mL, an EC50 [2] greater than 5 µg/mL and an EC50 [3] greater than 5 µg/mL. It also gave an EC50 [4] greater than 5 µg/mL and an EC50 [5] greater than 5 µg/mL.

Work on CC[C@@H](/C=C/[C@@H](C)[C@H]1CC[C@H]2C3=C[C@@H](OC)[C@@]4(O)C[C@@H](O)CC[C@]4(C)[C@H]3CC[C@]12C)C(C)C yielded an EC50 [1] of 5.2 µg/mL (≈ 11.3 µM), an EC50 [2] of 3.8 µg/mL (≈ 8.28 µM) and an EC50 [3] of 4.9 µg/mL (≈ 10.7 µM). For the same compound, the EC50 [4] was 4.4 µg/mL (≈ 9.59 µM) and the EC50 [5] was 7 µg/mL (≈ 15.3 µM).

Compound CC[C@@H](/C=C/[C@@H](C)[C@H]1CC[C@@H]2[C@]1(C)CC[C@@]13O[C@@]21[C@H](O)[C@@H]1O[C@@]12C[C@@H](O)CC[C@]32C)C(C)C (relative stereo) [HOMAXISTEROL B2] has an EC50 [1] of 1.1 µg/mL (≈ 2.4 µM), an EC50 [2] of 1 µg/mL (≈ 2.18 µM) and an EC50 [3] of 1.1 µg/mL (≈ 2.4 µM). For the same compound, the EC50 [4] was 1.4 µg/mL (≈ 3.05 µM) and the EC50 [5] was 1.3 µg/mL (≈ 2.83 µM).

CC(C)C/C=C/[C@@H](C)[C@H]1CC[C@@H]2[C@]1(C)CC[C@@]13O[C@@]21[C@H](O)[C@@H]1O[C@@]12C[C@@H](O)CC[C@]32C [HOMAXISTEROL B1] showed an EC50 [1] of 3.1 µg/mL (≈ 7.2 µM), an EC50 [2] of 3.4 µg/mL (≈ 7.9 µM) and an EC50 [3] of 3.2 µg/mL (≈ 7.43 µM). The EC50 [4] was 3.9 µg/mL (≈ 9.06 µM) and the EC50 [5] was 3.5 µg/mL (≈ 8.13 µM).

In the case of CC[C@@H](/C=C/[C@@H](C)[C@H]1CC[C@H]2C3=C[C@@H](O)[C@@]4(O)C[C@@H](O)CC[C@]4(C)[C@@]3(O)CC[C@]12C)C(C)C, the EC50 [1] is reported as greater than 5 µg/mL, the EC50 [2] is reported as greater than 5 µg/mL and the EC50 [3] is reported as greater than 5 µg/mL. It also gave an EC50 [4] greater than 5 µg/mL and an EC50 [5] greater than 5 µg/mL.

In the case of CC(C)[C@H](C)/C=C/[C@@H](C)[C@H]1CC[C@H]2C3=C[C@@H](O)[C@@]4(O)C[C@@H](O)CC[C@]4(C)[C@H]3CC[C@]12C, the EC50 [1] is reported as greater than 5 µg/mL, the EC50 [2] is reported as greater than 5 µg/mL and the EC50 [3] is reported as greater than 5 µg/mL. For the same compound, the EC50 [4] was greater than 5 µg/mL and the EC50 [5] was greater than 5 µg/mL.

CC(C)C(C)/C=C/[C@@H](C)[C@H]1CC[C@@H]2[C@]1(C)CC[C@@]13O[C@@]21[C@H](O)[C@@H]1O[C@@]12C[C@@H](O)CC[C@]32C (stereo not given in full) gave an EC50 [1] of 2.7 µg/mL (≈ 6.07 µM), an EC50 [2] of 3.4 µg/mL (≈ 7.65 µM) and an EC50 [3] of 4.8 µg/mL (≈ 10.8 µM). It also gave an EC50 [4] of 7.1 µg/mL (≈ 16 µM) and an EC50 [5] of 6.3 µg/mL (≈ 14.2 µM).

Work on COc1cccc2c1C(=O)c1c(O)c3c(c(O)c1C2=O)C[C@@](O)(C(=O)CO)C[C@@H]3O[C@H]1C[C@H](N)[C@H](O)[C@H](C)O1 (stereo in doubt) [DOXORUBICIN] yielded an EC50 [1] of 0.01 µg/mL (≈ 0.0184 µM), an EC50 [2] of 0.01 µg/mL (≈ 0.0184 µM) and an EC50 [3] of 0.05 µg/mL (≈ 0.092 µM). It also gave an EC50 [4] of 0.01 µg/mL (≈ 0.0184 µM) and an EC50 [5] of 0.03 µg/mL (≈ 0.0552 µM).
